Test results as given in patent publication US6403533B2, “Stabilized microbicide formulation” (Rohm and Haas Company, priority 2000, dated 2002).

assay: Visual examination for brown precipitate formation upon storage of dilute aqueous CMI/MI solutions; assay type: physicochemical; settings: storage at 55 °C, 30 ppm copper ion
Protocol: An advantage of the compositions of the present invention is that they are both physically and chemically stable as prepared and upon storage. […] By “physically stable” we mean that the compositions are fluid and show no visible brown precipitate formation after storage for at least 4 weeks at 55° C., and preferably for at least 8 weeks at 55° C. By “chemically stable” is meant that the 3-isothiazolone, particularly the CMI compound, retains at least 60%, preferably at least 70% and more preferably at least 80%, of its original concentration in the dilute solution composition after storage for at least 4 weeks at 55° C., and preferably for at least 8 weeks at 55° C.
Some embodiments of the invention are described in detail in the following Examples. All ratios, parts and percentages are expressed by weight unless otherwise specified, and all reagents used are of good commercial quality unless otherwise specified. The level of copper is reported in ppm as the level of cupric ion. Samples were considered stable when the samples were free of brown precipitate after being stored at least 4 weeks, and preferably at least 8 weeks, at 55° C. Abbreviations used in the Examples and Tables are listed below with the corresponding descriptions.
The samples tested were prepared by adding known amounts of 3-isothiazolone, copper sulfate pentahydrate, water-soluble organic solvent and DI water to a 100-ml glass jar equipped with a magnetic stir bar. The 3-isothiazolone used was an approximate 3:1 (weight/weight) mixture of CMI and MI (98% purity). Ingredients were combined in a manner to provide test solutions containing 1.5% of the 3-isothiazolone (1.53 g per 100 g total solution), 30 ppm copper ion (0.0118 g copper sulfate pentahydrate per 100 g total solution) and various concentrations of water-soluble organic solvent (0 g, 1 g, 5 g, 10 g, 25 g and 50 g per 100 g total solution, corresponding to 0%, 1%, 5%, 10%, 25% or 50% solvent, respectively); the remainder of the solution (to 100 g total) was made up with DI water. Each sample was stirred until all solids were dissolved; portions (approximately 10 g) were then transferred to 20-ml glass vials and stored at room temperature or in an oven at 55° C. The samples were visually examined at various time points to determine the formation of brown precipitate and analyzed by HPLC/UV detection to determine the amount of CMI remaining; in all cases the amount of remaining MI was unchanged (100% of original value).

Structure (SMILES)	stabilizing effect of the solvent regarding prevention of brown precipitate formation (in words)
CC(O)CO (stereo not shown) [PG, Propylene Glycol (1,2-Propanediol)]	effective stabilizing solvent above levels of 1%
CCOC(C)=O [ethyl acetate, Ethyl Acetate]	effective stabilizing solvents at use levels above 1%
CCO [ethanol, Ethanol]	effective stabilizing solvents at use levels above 1%
OCCCCCO [1,5-pentanediol, 1,5-Pentandiol (Pentamethylene Glycol)]	effective stabilizing solvents at use levels above 1%
